# Measured values reported in ChEMBL document CHEMBL6121016, “Design, Synthesis, and Biological Evaluation of 1,3,4-Thiadiazole Derivatives as Novel Potent Peptide Deformylase Inhibitors for Combating Drug-Resistant Gram-Positive and -Negative Bacteria” (J Med Chem, 2025).
# What was measured:
# Staphylococcus aureus [1] = assay: Antibacterial activity against methicillin-resistant Staphylococcus aureus ATCC 33591 after 16 to 18 hrs by broth microdilution method; assay type: functional; details: time 16-18 hrs
# Staphylococcus aureus [2] = assay: Antibacterial activity against methicillin-resistant Staphylococcus aureus ATCC 43300 after 16 to 18 hrs by broth microdilution method; assay type: functional; details: time 16-18 hrs
# Staphylococcus aureus [3] = assay: Antibacterial activity against methicillin-resistant Staphylococcus aureus Bio-090770 after 16 to 18 hrs by broth microdilution method; assay type: functional; details: time 16-18 hrs
# Staphylococcus aureus [4] = assay: Antibacterial activity against methicillin-susceptible Staphylococcus aureus ATCC 29213 after 16 to 18 hrs by broth microdilution method; assay type: functional; details: time 16-18 hrs
# Staphylococcus aureus [5] = assay: Antibacterial activity against methicillin-susceptible Staphylococcus aureus ATCC 25923 after 16 to 18 hrs by broth microdilution method; assay type: functional; details: time 16-18 hrs
# Staphylococcus aureus [6] = assay: Antibacterial activity against methicillin-susceptible Staphylococcus aureus ATCC 13709 after 16 to 18 hrs by broth microdilution method; assay type: functional; details: time 16-18 hrs
# [7] = test system: Staphylococcus epidermidis; assay: Antibacterial activity against Staphylococcus epidermidis after 16 to 18 hrs by broth microdilution method; assay type: functional; details: time 16-18 hrs
# Escherichia coli [8] = assay: Antibacterial activity against Escherichia coli ATCC 25922 after 16 to 18 hrs by broth microdilution method; assay type: functional; details: time 16-18 hrs
# Klebsiella pneumoniae [9] = assay: Antibacterial activity against Klebsiella pneumoniae CICC 21611 after 16 to 18 hrs by broth microdilution method; assay type: functional; details: time 16-18 hrs
# Acinetobacter baumannii [10] = assay: Antibacterial activity against Acinetobacter baumannii Bio 34235 after 16 to 18 hrs by broth microdilution method; assay type: functional; details: time 16-18 hrs
# Acinetobacter baumannii [11] = assay: Antibacterial activity against drug-resistant Acinetobacter baumannii Bio 53272 after 16 to 18 hrs by broth microdilution method; assay type: functional; details: time 16-18 hrs
# [12] = Methemoglobin toxicity in human blood at 500 uM incubated for 6 hrs by MetHb content assay; assay type: tissue-based
# Acinetobacter baumannii [13] = assay: Antibacterial activity against Acinetobacter baumannii Bio 53272 after 16 to 18 hrs by broth microdilution method; assay type: functional; details: time 16-18 hrs
# Acinetobacter baumannii [14] = assay: Antibacterial activity against Acinetobacter baumannii Bio 24253 after 16 to 18 hrs by broth microdilution method; assay type: functional; details: time 16-18 hrs
# Acinetobacter baumannii [15] = assay: Antibacterial activity against Acinetobacter baumannii Bio 53250 after 16 to 18 hrs by broth microdilution method; assay type: functional; details: time 16-18 hrs
# Acinetobacter baumannii [16] = assay: Antibacterial activity against Acinetobacter baumannii Bio 69680 after 16 to 18 hrs by broth microdilution method; assay type: functional; details: time 16-18 hrs
# Acinetobacter baumannii [17] = assay: Antibacterial activity against Acinetobacter baumannii Bio 120982 after 16 to 18 hrs by broth microdilution method; assay type: functional; details: time 16-18 hrs
# Klebsiella pneumoniae [18] = assay: Antibacterial activity against Klebsiella pneumoniae CICC 21092 after 16 to 18 hrs by broth microdilution method; assay type: functional; details: time 16-18 hrs
# Klebsiella pneumoniae [19] = assay: Antibacterial activity against Klebsiella pneumoniae CICC 20093 after 16 to 18 hrs by broth microdilution method; assay type: functional; details: time 16-18 hrs
# Escherichia coli [20] = assay: Antibacterial activity against Escherichia coli ATCC 10668 after 16 to 18 hrs by broth microdilution method; assay type: functional; details: time 16-18 hrs
# Escherichia coli [21] = assay: Antibacterial activity against Escherichia coli ATCC 10663 after 16 to 18 hrs by broth microdilution method; assay type: functional; details: time 16-18 hrs
# Escherichia coli [22] = assay: Antibacterial activity against Escherichia coli ATCC 10661 after 16 to 18 hrs by broth microdilution method; assay type: functional; details: time 16-18 hrs
# [23] = Cytotoxicity against human HEK293T cells assessed as cell viability at 3.125 to 100 uM incubated for 24 hrs by MTT assay; assay type: toxicity, cell-based, HEK-293T
# [24] = Cytotoxicity against human HeLa cells assessed as cell viability at 3.125 to 100 uM incubated for 24 hrs by MTT assay; assay type: toxicity, cell-based
Compound,MIC (Staphylococcus aureus [1]) [µg/mL],MIC (Staphylococcus aureus [2]) [µg/mL],MIC (Staphylococcus aureus [3]) [µg/mL],MIC (Staphylococcus aureus [4]) [µg/mL],MIC (Staphylococcus aureus [5]) [µg/mL],MIC (Staphylococcus aureus [6]) [µg/mL],MIC [7] [µg/mL],MIC (Escherichia coli [8]) [µg/mL],MIC (Klebsiella pneumoniae [9]) [µg/mL],MIC (Acinetobacter baumannii [10]) [µg/mL],MIC (Acinetobacter baumannii [11]) [µg/mL],further results
CCCC[C@H](CN(O)C=O)C(=O)N1CCC[C@H]1c1nnc(-c2cc(OC)c(OC)c(OC)c2)s1,0.25,0.5,1,4,1,0.5,2,> 16,> 16,> 16,> 16,
Nc1ccc(S(=O)(=O)c2ccc(N)cc2)cc1 [DAPSONE],,,,,,,,,,,,Activity [12]: Toxic
CCCC[C@H](CN(O)C=O)C(=O)N1CCC[C@H]1c1nnc(-c2ccc(F)cc2C(F)(F)F)s1,0.5,2,4,2,2,2,4,> 16,> 16,> 16,> 16,
CCCC[C@H](CN(O)C=O)C(=O)N1CCC[C@H]1c1nnc(-c2nccs2)s1,0.25,0.25,1,2,1,0.5,0.25,> 16,> 16,16,8,Activity [12]: Toxic
CCCC[C@H](CN(O)C=O)C(=O)N1CCC[C@H]1c1nnc(-c2ccc(C(F)(F)F)cc2)s1,1,2,2,4,2,4,4,> 16,> 16,> 16,16,
CCCC[C@H](CN(O)C=O)C(=O)N1CCC[C@H]1c1nnc(-c2ccc([N+](=O)[O-])cc2)s1,0.25,0.25,1,0.5,0.5,0.5,1,> 16,> 16,> 16,8,
CCCC[C@H](CN(O)C=O)C(=O)N1CCC[C@H]1c1nnc(-c2ccnc(C(F)(F)F)c2)s1,0.25,0.25,1,0.5,0.5,0.5,1,128,64,64,16,
CCCC[C@H](CN(O)C=O)C(=O)N1CCC[C@H]1c1nnc(-c2ccc[nH]2)s1,0.25,0.5,4,1,1,1,0.5,> 16,> 16,> 16,> 16,
CCCC[C@H](CN(O)C=O)C(=O)N1CCC[C@H]1c1nnc(-c2ccccc2OC)s1,2,0.5,2,0.5,1,1,2,16,> 16,16,16,
CC(=O)NC[C@H]1CN(c2ccc(N3CCOCC3)c(F)c2)C(=O)O1 [LINEZOLID],1,1,1,1,1,1,8,> 128,128,128,> 16,MIC (Acinetobacter baumannii [13]): 128 µg/mL; MIC (Acinetobacter baumannii [14]): 128 µg/mL; MIC (Acinetobacter baumannii [15]): 128 µg/mL; MIC (Acinetobacter baumannii [16]): 128 µg/mL; MIC (Acinetobacter baumannii [17]): 128 µg/mL; MIC (Klebsiella pneumoniae [18]): > 128 µg/mL; MIC (Klebsiella pneumoniae [19]): 128 µg/mL; MIC (Escherichia coli [20]): 128 µg/mL; MIC (Escherichia coli [21]): 64 µg/mL; MIC (Escherichia coli [22]): 16 µg/mL; IC50 at 24 h [23]: > 100 µM; IC50 at 24 h [24]: > 100 µM
CCCC[C@H](CN(O)C=O)C(=O)N1CCC[C@H]1c1nnc(C2CC2)s1,1,1,4,4,2,2,0.5,> 16,> 16,> 16,> 16,
CCCC[C@H](CN(O)C=O)C(=O)N1CCC[C@H]1c1nnc(CCC)s1,1,1,4,2,2,2,2,> 16,> 16,> 16,> 16,
